As usually defined, the IC50 is the concentration that gives 50% inhibition.

For this test, the target named is Recombinant human ULK1 (1-649) (Homo sapiens (Human), UniProt O75385). Nature of the test: ULK1 ADP Glo kinase activity assay, new method (ULKtide peptide substrate). As to conditions: 25° C., 40 minutes, read-out: ULK1 biochemical IC50. The gist of the method: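 GST-tagged human ULK1 (1-649) from Sf9 cells was reacted with ULKtide peptide and ATP for 40 min at 25 °C across 12-point compound dilutions from 10 μM. ADP formed was quantified by ADP-Glo luminescence; IC50 came from four-parameter fits relative to DMSO controls.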

Where only a bound is given, the exact number is not on record here.

Sequence of Recombinant human ULK1 (1-649) (O75385 1-649): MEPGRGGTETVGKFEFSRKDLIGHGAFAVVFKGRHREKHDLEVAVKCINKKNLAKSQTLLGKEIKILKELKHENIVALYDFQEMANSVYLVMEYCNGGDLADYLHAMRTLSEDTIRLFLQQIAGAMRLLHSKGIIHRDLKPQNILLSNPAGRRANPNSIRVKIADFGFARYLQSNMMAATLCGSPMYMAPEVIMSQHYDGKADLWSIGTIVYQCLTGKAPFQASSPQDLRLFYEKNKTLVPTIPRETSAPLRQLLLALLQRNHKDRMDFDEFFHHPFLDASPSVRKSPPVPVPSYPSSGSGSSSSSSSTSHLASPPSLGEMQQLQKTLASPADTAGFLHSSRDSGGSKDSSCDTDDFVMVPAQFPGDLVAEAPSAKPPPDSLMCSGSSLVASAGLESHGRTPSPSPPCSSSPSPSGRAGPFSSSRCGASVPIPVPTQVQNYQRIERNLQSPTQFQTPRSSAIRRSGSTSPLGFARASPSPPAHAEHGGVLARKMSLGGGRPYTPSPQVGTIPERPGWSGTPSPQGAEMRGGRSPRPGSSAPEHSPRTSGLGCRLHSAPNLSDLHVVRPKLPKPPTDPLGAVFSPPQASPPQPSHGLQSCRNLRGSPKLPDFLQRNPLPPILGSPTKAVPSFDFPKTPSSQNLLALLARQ

With `CSc1cc2c(cc1Nc1ncc(C(F)(F)F)c(-c3cc4c(s3)C(=O)N(C)CCS4(=O)=O)n1)CCN(C)C2` [Example 171, 4-methyl-7-(2-((2-methyl-7-(methylthio)-1,2,3,4-tetrahydroisoquinolin-6-yl)amino)-5-(trifluoromethyl)pyrimidin-4-yl)-3,4-dihydrothieno[2,3-f][1,4]thiazepin-5(2H)-one 1,1-dioxide], the IC50 was no more than 5 nM.
Regarding `O=C1NCCS(=O)(=O)c2cc(-c3nc(Nc4cn(C5CCNCC5)nc4C4CC4)ncc3C(F)(F)F)sc21` [Example 151, 7-(2-((3-cyclopropyl-1-(piperidin-4-yl)-1H-pyrazol-4-yl)amino)-5-(trifluoromethyl)pyrimidin-4-yl)-3,4-dihydrothieno[2,3-f][1,4]thiazepin-5(2H)-one 1,1-dioxide], the IC50 was no more than 5 nM.
To `CCN1CCc2cc(Nc3ncc(C(F)(F)F)c(-c4cc5c(s4)C(=O)N(CC)CCS5(=O)=O)n3)c(C3CC3)cc2C1` [Example 199, 7-(2-((7-cyclopropyl-2-ethyl-1,2,3,4-tetrahydroisoquinolin-6-yl)amino)-5-(trifluoromethyl)pyrimidin-4-yl)-4-ethyl-3,4-dihydrothieno[2,3-f][1,4]thiazepin-5(2H)-one 1,1-dioxide] belongs no more than 5 nM; to `Cc1nn(C2CCN(C)CC2)cc1Nc1ncc(C(F)(F)F)c(-c2cc3c(s2)C(=O)NCCS3(=O)=O)n1` [Example 182, 7-(2-((3-methyl-1-(1-methylpiperidin-4-yl)-1H-pyrazol-4-yl)amino)-5-(trifluoromethyl)pyrimidin-4-yl)-3,4-dihydrothieno[2,3-f][1,4]thiazepin-5(2H)-one 1,1-dioxide], greater than 100 nM; to `CCN1Cc2ccc(Nc3ncc(C(F)(F)F)c(-c4cc5c(s4)C(=O)N(C)CCS5(=O)=O)n3)c(C3CC3)c2C1` [Example 191, 7-(2-((4-cyclopropyl-2-ethylisoindolin-5-yl)amino)-5-(trifluoromethyl)pyrimidin-4-yl)-4-methyl-3,4-dihydrothieno[2,3-f][1,4]thiazepin-5(2H)-one 1,1-dioxide], 50 to 100 nM.
Under `O=C1c2sc(-c3nc(Nc4cc5c(cc4C4CC4)CN(CC4CC4)CC5)ncc3C(F)(F)F)cc2S(=O)(=O)CCN1C1COC1` [Example 256, 7-(2-((7-cyclopropyl-2-(cyclopropylmethyl)-1,2,3,4-tetrahydroisoquinolin-6-yl)amino)-5-(trifluoromethyl)pyrimidin-4-yl)-4-(oxetan-3-yl)-3,4-dihydrothieno[2,3-f][1,4]thiazepin-5(2H)-one 1,1-dioxide] stands no more than 5 nM.
Under `O=C1c2sc(-c3nc(Nc4cc5c(cc4Cl)CNCC5)ncc3C(F)(F)F)cc2S(=O)(=O)CCN1CC(F)(F)F` [Example 143, 7-(2-((7-chloro-1,2,3,4-tetrahydroisoquinolin-6-yl)amino)-5-(trifluoromethyl)pyrimidin-4-yl)-4-(2,2,2-trifluoroethyl)-3,4-dihydrothieno[2,3-f][1,4]thiazepin-5(2H)-one 1,1-dioxide] stands no more than 5 nM; under `O=C1c2sc(-c3nc(Nc4cc5c(cc4C4CC4)CN(CCOC(F)(F)F)CC5)ncc3C(F)(F)F)cc2S(=O)(=O)CCN1C1CC1` [Example 314, 4-cyclopropyl-7-(2-((7-cyclopropyl-2-(2-(trifluoromethoxy)ethyl)-1,2,3,4-tetrahydroisoquinolin-6-yl)amino)-5-(trifluoromethyl)pyrimidin-4-yl)-3,4-dihydrothieno[2,3-f][1,4]thiazepin-5(2H)-one 1,1-dioxide], 10 to 50 nM; under `CCN1Cc2cc(F)c(Nc3ncc(C(F)(F)F)c(-c4cc5c(s4)C(=O)N(C)CCS5(=O)=O)n3)cc2C1` [Example 190, 7-(2-((2-ethyl-6-fluoroisoindolin-5-yl)amino)-5-(trifluoromethyl)pyrimidin-4-yl)-4-methyl-3,4-dihydrothieno[2,3-f][1,4]thiazepin-5(2H)-one 1,1-dioxide], no more than 5 nM.

The values are drawn from patent US20250144094A1 (Erasca, Inc., priority 2021, published 2025).
